pIC50: −log10 of the molar value.
Legend:
[1] = target: Cyclooxygenase; test: Cyclooxygenase inhibitory effect; format: biochemical; conditions: seminal vesicular gland microsomes, 14C-arachidonic acid, prostaglandin E2 formation
Procedure: (1) Cyclooxygenase inhibitory effect
The assay was carried out by the method described in Biochem. Pharmacol. 25, 2479-2484 (1976).
^14 C-Arachidonic acid was reacted with seminal vesicular gland microsomes and the test drugs at various concentrations over a predetermined period of time and the obtained prostaglandin E2 was separated by thin-layer chromatography. The radioactivity was determined by liquid scintillation counter. The IC50 values were calculated by the comparison with the radioactivity of the control.

[2] = target: T1, 5-Lipoxygenase (Cavia porcellus, UniProt A0A286X958); test: 5-Lipoxygenase inhibitory effect; format: biochemical; conditions: cytosol fraction of guinea pig polymorphonuclear leukocytes, 14C-arachidonic acid, 5-hydroxyeicosatetraenoic acid formation
T1 construct: the polymorphonuclear leukocytes were collected and the cytosol fraction was obtained as an enzyme source; endogenous in cells; host or cells: guinea pig peritoneal polymorphonuclear leukocytes (casein-elicited), cytosol fraction
T1 sequence (A0A286X958 1-674): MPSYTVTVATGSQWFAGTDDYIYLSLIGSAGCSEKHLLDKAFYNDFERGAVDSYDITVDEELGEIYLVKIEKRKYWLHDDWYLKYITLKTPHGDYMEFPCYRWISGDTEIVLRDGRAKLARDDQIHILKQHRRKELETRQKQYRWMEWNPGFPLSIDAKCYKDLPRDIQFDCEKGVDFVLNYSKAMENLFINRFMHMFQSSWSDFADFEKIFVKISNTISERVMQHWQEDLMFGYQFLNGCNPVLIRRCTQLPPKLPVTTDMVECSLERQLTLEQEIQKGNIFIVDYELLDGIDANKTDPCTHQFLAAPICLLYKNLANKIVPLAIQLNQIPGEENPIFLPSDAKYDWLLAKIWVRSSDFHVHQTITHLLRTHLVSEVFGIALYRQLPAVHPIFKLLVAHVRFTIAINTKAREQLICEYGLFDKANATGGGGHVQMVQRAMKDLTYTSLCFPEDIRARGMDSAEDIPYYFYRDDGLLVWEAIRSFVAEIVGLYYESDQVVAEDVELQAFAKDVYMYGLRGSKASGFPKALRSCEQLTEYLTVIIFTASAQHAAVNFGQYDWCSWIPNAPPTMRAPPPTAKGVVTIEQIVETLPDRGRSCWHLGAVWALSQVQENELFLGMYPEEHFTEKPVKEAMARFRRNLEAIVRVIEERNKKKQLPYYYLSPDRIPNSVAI
Procedure: 2) 5-Lipoxygenase inhibitory effect
The assay was carried out by the method described in Journal of Biological Chemistry 258, 5754-5758 (1983) Casein was injected into the abdominal cavity of a guinea pig, and the polymorphonuclear leukocytes were collected and the cytosol fraction was obtained as an enzyme source. ^14 C-Arachidonic acid was reacted with the enzyme and the test drugs at various concentrations over a predetermined period of time. The obtained 5-hydroxyeicosatetraenoic acid was separated by thin-layer chromatography and the radioactivity was determined. By the comparison with the radioactivity of the control, the IC50 values were calculated.

[3] = test system: contraction of respiratory tract; test: Effect on allergic asthma (airway resistance after ovalbumin challenge in passively sensitized guinea pigs); format: in vivo, guinea pig (Hartley); conditions: mean ± standard error, oral, 100 mg in 5 ml, 5 ml/kg, 2 hours before challenge, ovalbumin i.v., diphenhydramine, propranolol and indomethacin pretreatment
Procedure: 3. Effect on allergic asthma
To a guinea pig (Hartley, 350 to 400 g, male) was administered 0.5 ml/kg of a guinea pig anti-ovalbumin IgE serum for passive sensitization. Two days later, the guinea pig was anesthetized with pentobarbital (70 mg/kg) and a cannula and a catheter were each inserted into the trachea and a carotid artery, respectively. Further, the spontaneous respiration of the guinea pig was stopped with use of 0.5 mg/kg of pancuronium bromide and artificial respiration was conducted (100% oxygen at 1 kgf/cm^2, respirator: EVM-50A (manufactured by AIKA Co., Ltd.), predetermined flow rate of oxygen: 0.45 l/min, number of respiration: 40 times/min, time for inspiration: 0.25 sec/respiration). The measurement for contraction of respiratory tract was carried out by modified Konzett and Rossler method. A 100 mg quantity of the compound of the present invention was suspended in 5 ml of a 5% Tween-80-phosphate buffered physiological saline solution (pH 6.8). Two hours before the challenge, the test drug was orally administered in a volume of 5 ml/kg. The same quantity of the solvent alone was orally administered to a control group. Further, 2.5 mg/kg of diphenhydramine, 0.05 mg/kg of propranolol and 5 mg/kg of indomethacin were intravenously administered 5 minutes before the challenge. A 22.5 to 35 μg/kg quantity of ovalbumin was intravenously administered and the contraction of respiratory tract was measured as airway resistance with use of a pressure transducer. The maximum airway resistance was taken as 100%, and the change in the airway resistance caused a predetermined period of time after the challenge was shown as the ratio relative to the maximum airway resistance.

SMILES | pIC50 [1] | pIC50 [2] | Airway resistance (ratio relative to the maximum airway resistance) ([3]; 3 minutes after challenge, control 41.9 ± 7.0) | Airway resistance (ratio relative to the maximum airway resistance) ([3]; 8 minutes after challenge, control 79.5 ± 5.4) | Airway resistance (ratio relative to the maximum airway resistance) ([3]; 16 minutes after challenge, control 75.3 ± 5.8)
O=C(Cc1ccc(O)c(O)c1)OC(CN1CCN(CCCCCCCCCCO)CC1)c1ccccc1 (stereo not drawn) [Compound 8] | 5.00 | 6.49 | – | – | –
O=C(/C=C/c1ccc(O)c(O)c1)OC(CN1CCN(CCCCCCCCCCO)CC1)c1ccc(Cl)cc1 (stereo not drawn) [Compound 15] | 5.47 | 7.05 | – | – | –
CCCCCCCCCCN1CCN(CC(OC(=O)/C=C/c2ccc(O)c(O)c2)c2ccccc2)CC1 (stereo not drawn) [Compound 19] | 5.37 | 7.10 | – | – | –
CCCCCCCCCCN1CCN(C(=O)CNC(=O)/C=C/c2ccc(O)c(O)c2)CC1 [Compound 23] | 5.38 | 7.40 | – | – | –
CCCCCCCCCCN1CCN(C(=O)/C=C/c2ccc(O)c(O)c2)CC1 [Compound 35] | 5.08 | 7.40 | – | – | –
CCCCCCCCN1CCN(C(=O)/C=C/c2ccc(O)c(O)c2)CC1 [Compound 36] | 5.54 | 6.92 | – | – | –
CCCCCCCCCCN1CCN(C(=O)CNC(=O)/C=C/c2ccc(OC(=O)OCC)c(OC(=O)OCC)c2)CC1 [Compound 40] | – | – | 22.6 ± 3.7% | 45.6 ± 11.0% | 40.9 ± 11.3%

— patent publication US5182284A, “Piperazine compounds, processes for preparation thereof and medical uses thereof” (Taiho Pharmaceutical Co., Ltd., priority 1990, dated 1993)
